One test deals with T1, Human δ-opioid (DOP) (Homo sapiens, UniProt P41143).
T1 construct: purchased Perkin Elmer Biosignal
The experiment in a line: Radioligand binding, human δ-opioid (DOP) membranes, FlashPlate, [3H]-Bremazocine. The following applies: compound at 10 μM; for A1: inhibition of radioligand binding: [3H]-Bremazocine. A digest of the protocol:
(§1)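 Cloned human receptor membranes were coated onto FlashPlate wells and incubated with radioligand and compound (added from a 0.5 mM DMSO daughter plate) for 1 hour at room temperature in the dark. Scintillation counting gave percent inhibition, with DMSO defining total and reference ligand defining non-specific binding.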

The next test has as its target T2, Human κ-Opioid (KOP) (Homo sapiens, UniProt P41145).
T2 construct: purchased Perkin Elmer Biosignal
The experiment in a line: Radioligand binding, human κ-opioid (KOP) membranes, filtration, [3H]-Diprenorphine. The following applies: compound at 10 μM; for A2: inhibition of radioligand binding: [3H]-Diprenorphine. A digest of the protocol: (§2)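 Filtration binding on cloned human receptor membranes (1 Unit/well), [125I]-Substance P for NK1 and [3H]-Diprenorphine for KOP, 1 h at room temperature. Filters PEI-presoaked, washed with cold 50 mM Tris-HCl pH 7.4, counted by scintillation; percent inhibition calculated, reference ligand defining non-specific binding.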

A further test concerns the target T3, Human Melanocortin (MC3) (Homo sapiens, UniProt P41968).
T3 construct: purchased Perkin Elmer Biosignal
The experiment in a line: Radioligand binding, human melanocortin MC3 membranes, FlashPlate, [125I]-NDP-αMSH. Particulars: compound at 10 μM; for A3: inhibition of radioligand binding: [125I]-NDP-αMSH. In a few lines: as §1

The next test deals with T4, Human Melanocortin (MC4) (Homo sapiens, UniProt P32245).
T4 construct: purchased Perkin Elmer Biosignal
The experiment in a line: Radioligand binding, human melanocortin MC4 membranes, FlashPlate, [125I]-NDP-αMSH. Particulars: compound at 10 μM; for A4: inhibition of radioligand binding: [125I]-NDP-αMSH. A digest of the protocol:
as §1

For a further test, the target named is T5, Human melanocortin (MC5) (Homo sapiens, UniProt P33032).
T5 construct: purchased Perkin Elmer Biosignal
The experiment in a line: Radioligand binding, human melanocortin MC5 membranes, FlashPlate, [125I]-NDP-αMSH. Particulars: compound at 10 μM; for A5: inhibition of radioligand binding: [125I]-NDP-αMSH. A digest of the protocol:
as §1

The target in test [1] is T6, Human melanin-concentrating hormone (MCH1) (Homo sapiens, UniProt Q99705).
T6 construct: purchased Perkin Elmer Biosignal
The experiment in a line: Radioligand binding, human melanin-concentrating hormone MCH1 membranes, FlashPlate, [125I]-S36057. The following applies: compound at 10 μM. A digest of the protocol:
as §1

For the next test, the target named is T7, Human μ-opioid (MOP) (Homo sapiens, UniProt P35372).
T7 construct: purchased Perkin Elmer Biosignal
The experiment in a line: Radioligand binding, human μ-opioid (MOP) membranes, FlashPlate, [3H]-Naloxone. The following applies: compound at 10 μM; for A7: inhibition of radioligand binding: [3H]-Naloxone. In a few lines: as §1

Another test deals with T8, Human neurokinin (NK1) (Homo sapiens, UniProt P25103).
T8 construct: purchased Perkin Elmer Biosignal
The experiment in a line: Radioligand binding, human neurokinin NK1 membranes, filtration, [125I]-Substance P. Particulars: compound at 10 μM; for A8: inhibition of radioligand binding: [125I]-Substance P. In a few lines:
as §2

In test [2] the target is T9, Human neuropeptide Y (NPY-Y1) (Homo sapiens, UniProt P25929).
T9 construct: purchased Perkin Elmer Biosignal
T9 sequence (P25929 1-384): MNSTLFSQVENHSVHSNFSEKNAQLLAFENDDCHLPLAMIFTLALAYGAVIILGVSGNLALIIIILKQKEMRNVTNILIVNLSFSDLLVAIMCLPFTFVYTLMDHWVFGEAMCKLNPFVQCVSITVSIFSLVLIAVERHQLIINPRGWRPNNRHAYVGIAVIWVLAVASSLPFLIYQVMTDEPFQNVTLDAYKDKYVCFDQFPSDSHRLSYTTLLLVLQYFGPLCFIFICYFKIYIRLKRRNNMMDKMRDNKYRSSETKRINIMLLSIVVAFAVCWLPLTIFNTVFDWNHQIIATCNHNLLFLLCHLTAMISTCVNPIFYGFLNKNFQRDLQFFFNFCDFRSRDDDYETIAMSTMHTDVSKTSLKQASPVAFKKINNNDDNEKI
The experiment in a line: Radioligand binding, human neuropeptide Y NPY-Y1 membranes, FlashPlate, [125I]-PYY. The following applies: compound at 10 μM; for A9: inhibition of radioligand binding: [125I]-PYY. A digest of the protocol: as §1

In a further test the target is T10, Human opioid (ORL1) (Homo sapiens, UniProt P41146).
T10 construct: purchased Perkin Elmer Biosignal
The experiment in a line: Radioligand binding, human opioid ORL1 membranes, FlashPlate, [125I]-Nociceptin. The following applies: compound at 10 μM; for A10: inhibition of radioligand binding: [125I]-Nociceptin. A digest of the protocol: as §1

The target of the next test is T11, Mouse urotensin (mUR2) (Mus musculus, UniProt Q8VIH9).
T11 construct: purchased Perkin Elmer Biosignal
T11 sequence (Q8VIH9 1-385): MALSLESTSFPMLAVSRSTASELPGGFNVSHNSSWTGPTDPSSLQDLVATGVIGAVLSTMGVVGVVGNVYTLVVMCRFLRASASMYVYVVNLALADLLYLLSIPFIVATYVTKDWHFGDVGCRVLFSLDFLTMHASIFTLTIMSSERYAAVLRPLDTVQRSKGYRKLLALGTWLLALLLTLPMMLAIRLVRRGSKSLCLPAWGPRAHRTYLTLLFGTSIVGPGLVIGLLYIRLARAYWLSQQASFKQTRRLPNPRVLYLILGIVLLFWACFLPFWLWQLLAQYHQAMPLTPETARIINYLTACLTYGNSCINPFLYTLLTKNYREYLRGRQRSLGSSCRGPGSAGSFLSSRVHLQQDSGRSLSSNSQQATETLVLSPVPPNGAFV
The experiment in a line: Radioligand binding, mouse urotensin mUR2 membranes, FlashPlate, [125I]-Urotensin II. Particulars: compound at 10 μM; for A11: inhibition of radioligand binding: [125I]-Urotensin II. In a few lines:
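Cloned mouse urotensin (mUR2) receptor membranes from Perkin Elmer Biosignal were immobilized in FlashPlate microplates using a proprietary coating. Each well got 19.5 μl buffer, then 0.5 μl of DMSO, reference ligand, or compound. Adding 5 μl of [125I]-Urotensin II, diluted to 5× final concentration in binding buffer, started binding. Plates were sealed with TopSeal-A and incubated 1 hour at room temperature in the dark. Wells were counted for 30 seconds each on a TopCount after a 60-second delay, and percentage inhibition was calculated.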

T7 sequence (P35372 whole entry): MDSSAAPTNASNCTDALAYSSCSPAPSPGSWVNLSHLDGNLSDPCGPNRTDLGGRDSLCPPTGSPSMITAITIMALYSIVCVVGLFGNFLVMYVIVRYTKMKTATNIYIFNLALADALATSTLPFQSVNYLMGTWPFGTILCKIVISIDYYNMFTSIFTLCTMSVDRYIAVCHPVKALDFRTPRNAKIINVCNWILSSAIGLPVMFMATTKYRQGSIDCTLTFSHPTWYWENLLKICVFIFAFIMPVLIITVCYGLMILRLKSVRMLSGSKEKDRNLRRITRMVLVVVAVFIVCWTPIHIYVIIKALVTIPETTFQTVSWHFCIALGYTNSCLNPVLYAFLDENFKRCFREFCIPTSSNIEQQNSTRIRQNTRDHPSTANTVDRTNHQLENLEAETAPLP
T4 sequence (P32245 whole entry): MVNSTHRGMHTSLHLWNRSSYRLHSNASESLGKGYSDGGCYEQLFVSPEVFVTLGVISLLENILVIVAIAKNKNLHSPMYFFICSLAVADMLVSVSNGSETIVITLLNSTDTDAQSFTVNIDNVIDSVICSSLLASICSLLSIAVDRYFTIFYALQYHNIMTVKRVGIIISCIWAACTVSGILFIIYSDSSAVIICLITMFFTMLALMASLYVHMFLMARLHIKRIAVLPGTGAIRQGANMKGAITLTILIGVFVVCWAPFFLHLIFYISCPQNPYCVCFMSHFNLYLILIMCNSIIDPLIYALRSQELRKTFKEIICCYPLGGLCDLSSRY
T2 sequence (P41145 whole entry): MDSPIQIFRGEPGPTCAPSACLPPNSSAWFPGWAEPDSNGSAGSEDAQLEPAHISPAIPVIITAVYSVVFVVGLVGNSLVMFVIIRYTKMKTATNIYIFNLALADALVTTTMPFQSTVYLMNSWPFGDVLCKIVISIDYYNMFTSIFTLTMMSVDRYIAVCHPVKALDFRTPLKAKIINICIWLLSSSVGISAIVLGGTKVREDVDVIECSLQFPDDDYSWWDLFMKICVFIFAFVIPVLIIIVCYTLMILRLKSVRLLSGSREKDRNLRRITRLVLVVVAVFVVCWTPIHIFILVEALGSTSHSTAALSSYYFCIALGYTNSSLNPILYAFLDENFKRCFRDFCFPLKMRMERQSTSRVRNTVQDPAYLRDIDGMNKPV
T1 sequence (P41143 whole entry): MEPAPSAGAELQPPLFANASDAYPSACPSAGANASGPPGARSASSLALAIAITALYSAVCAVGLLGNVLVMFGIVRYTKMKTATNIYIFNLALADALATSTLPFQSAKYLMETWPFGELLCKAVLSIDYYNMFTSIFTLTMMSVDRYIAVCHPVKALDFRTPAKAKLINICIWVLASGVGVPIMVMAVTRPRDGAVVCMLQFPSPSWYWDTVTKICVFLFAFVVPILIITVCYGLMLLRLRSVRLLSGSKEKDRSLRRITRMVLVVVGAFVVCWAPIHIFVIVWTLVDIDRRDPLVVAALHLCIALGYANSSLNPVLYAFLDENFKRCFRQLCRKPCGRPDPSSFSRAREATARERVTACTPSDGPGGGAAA
T3 sequence (P41968 whole entry): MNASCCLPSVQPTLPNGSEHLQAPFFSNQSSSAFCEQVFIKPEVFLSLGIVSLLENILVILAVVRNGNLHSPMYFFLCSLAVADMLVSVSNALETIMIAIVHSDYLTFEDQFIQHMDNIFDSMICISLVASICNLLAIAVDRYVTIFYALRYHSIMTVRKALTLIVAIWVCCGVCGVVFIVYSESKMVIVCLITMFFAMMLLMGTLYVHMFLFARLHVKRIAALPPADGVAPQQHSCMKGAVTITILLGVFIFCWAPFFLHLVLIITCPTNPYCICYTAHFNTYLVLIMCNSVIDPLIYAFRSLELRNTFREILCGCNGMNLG
T6 sequence (Q99705 whole entry): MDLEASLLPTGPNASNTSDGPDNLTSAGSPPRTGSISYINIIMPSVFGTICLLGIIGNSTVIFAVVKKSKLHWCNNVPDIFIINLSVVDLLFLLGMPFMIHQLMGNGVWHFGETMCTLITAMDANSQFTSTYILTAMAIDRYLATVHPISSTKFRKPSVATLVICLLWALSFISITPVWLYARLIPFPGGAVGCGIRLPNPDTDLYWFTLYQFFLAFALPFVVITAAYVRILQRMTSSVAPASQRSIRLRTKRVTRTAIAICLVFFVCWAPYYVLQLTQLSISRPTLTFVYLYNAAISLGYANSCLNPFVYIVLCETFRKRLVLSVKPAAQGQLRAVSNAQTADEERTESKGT
T8 sequence (P25103 whole entry): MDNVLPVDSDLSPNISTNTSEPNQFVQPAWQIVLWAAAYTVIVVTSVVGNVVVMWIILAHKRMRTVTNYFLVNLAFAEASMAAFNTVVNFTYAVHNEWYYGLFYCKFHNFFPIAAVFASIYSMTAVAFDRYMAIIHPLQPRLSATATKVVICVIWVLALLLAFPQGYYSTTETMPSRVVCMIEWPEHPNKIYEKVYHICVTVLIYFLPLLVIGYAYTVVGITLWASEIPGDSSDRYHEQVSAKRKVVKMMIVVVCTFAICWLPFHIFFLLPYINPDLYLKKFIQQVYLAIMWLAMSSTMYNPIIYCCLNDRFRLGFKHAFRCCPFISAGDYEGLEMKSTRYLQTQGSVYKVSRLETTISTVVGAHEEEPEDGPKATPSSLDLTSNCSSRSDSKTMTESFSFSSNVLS
T10 sequence (P41146 whole entry): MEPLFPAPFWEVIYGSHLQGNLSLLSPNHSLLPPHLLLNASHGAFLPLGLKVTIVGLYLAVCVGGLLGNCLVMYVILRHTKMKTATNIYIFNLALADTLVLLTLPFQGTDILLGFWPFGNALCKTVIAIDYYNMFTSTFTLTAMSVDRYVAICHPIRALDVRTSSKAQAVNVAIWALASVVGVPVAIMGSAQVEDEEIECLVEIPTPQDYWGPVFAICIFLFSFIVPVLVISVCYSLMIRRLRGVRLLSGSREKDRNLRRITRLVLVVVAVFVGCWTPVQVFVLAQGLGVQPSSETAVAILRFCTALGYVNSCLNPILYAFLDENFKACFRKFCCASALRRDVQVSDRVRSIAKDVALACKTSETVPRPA
T5 sequence (P33032 whole entry): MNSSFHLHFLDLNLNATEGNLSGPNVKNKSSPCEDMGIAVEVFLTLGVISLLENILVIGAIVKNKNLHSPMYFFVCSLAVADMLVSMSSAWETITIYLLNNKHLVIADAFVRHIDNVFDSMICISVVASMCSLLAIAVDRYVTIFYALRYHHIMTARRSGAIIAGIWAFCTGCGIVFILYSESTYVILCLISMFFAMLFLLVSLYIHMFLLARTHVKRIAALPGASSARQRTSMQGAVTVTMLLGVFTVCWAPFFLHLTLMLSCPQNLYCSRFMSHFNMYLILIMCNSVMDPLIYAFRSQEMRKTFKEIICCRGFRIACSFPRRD

Take `COC[C@H]1OC(OCc2ccccc2)[C@H](NC(=O)CNC(=N)N)[C@@H](OCc2ccc(Cl)cc2)[C@@H]1O` (stereo partly drawn) [compound 27]: on Human δ-opioid (DOP) (human δ-opioid (DOP) membranes), the “A1 radioligand binding inhibition” value is given as “− (“−” indicates less than 50% inhibition at 10 μM)”. Further, the “A2 radioligand binding inhibition” value at Human κ-Opioid (KOP) (human κ-opioid (KOP) membranes) was “− (“−” indicates less than 50% inhibition at 10 μM)”. For the same compound, the “A3 radioligand binding inhibition” value at Human Melanocortin (MC3) (human melanocortin MC3 membranes) is on record as “− (“−” indicates less than 50% inhibition at 10 μM)”. Further, the “A4 radioligand binding inhibition” value at Human Melanocortin (MC4) (human melanocortin MC4 membranes) is given as “− (“−” indicates less than 50% inhibition at 10 μM)”. The “A5 radioligand binding inhibition” value at Human melanocortin (MC5) (human melanocortin MC5 membranes) is given as “+ (“+” indicates greater than 50% inhibition at 10 μM)”. In addition, the “A6 radioligand binding inhibition” value in [1] (human MCH1 membranes) is listed as “− (“−” indicates less than 50% inhibition at 10 μM)”. Besides, the “A7 radioligand binding inhibition” value on Human μ-opioid (MOP) (human μ-opioid (MOP) membranes) is reported as “− (“−” indicates less than 50% inhibition at 10 μM)”. The “A8 radioligand binding inhibition” value on Human neurokinin (NK1) (human neurokinin NK1 membranes) was “− (“−” indicates less than 50% inhibition at 10 μM)”. The “A9 radioligand binding inhibition” value in test [2] (human NPY-Y1 membranes) is reported as “− (“−” indicates less than 50% inhibition at 10 μM)”. Moreover, on Human opioid (ORL1) (human ORL1 membranes), the “A10 radioligand binding inhibition” value is recorded as “− (“−” indicates less than 50% inhibition at 10 μM)”. For the same compound, the “A11 radioligand binding inhibition” value at Mouse urotensin (mUR2) (mouse urotensin mUR2 membranes) is “− (“−” indicates less than 50% inhibition at 10 μM)”.
Regarding `N=C(N)NCCC(=O)NC1C(OCc2ccc(-c3ccccc3)cc2)OC(COCc2ccc(Cl)cc2)C(O)C1OCc1ccc(-c2ccccc2)cc1` (stereo not drawn) [compound 416], the “A1: inhibition of radioligand binding” value at Human δ-opioid (DOP) (human DOP membranes) is “− (“−” indicates less than 50% inhibition at 10 μM)”. At Human κ-Opioid (KOP) (human KOP membranes), the “A2: inhibition of radioligand binding” value is recorded as “− (“−” indicates less than 50% inhibition at 10 μM)”. In addition, the “A3: inhibition of radioligand binding” value on Human Melanocortin (MC3) (human MC3 membranes) is “+ (“+” indicates greater than 50% inhibition at 10 μM)”. For the same compound, at Human Melanocortin (MC4) (human MC4 membranes), the “A4: inhibition of radioligand binding” value is “+ (“+” indicates greater than 50% inhibition at 10 μM)”. Moreover, the “A5: inhibition of radioligand binding” value at Human melanocortin (MC5) (human MC5 membranes) is given as “+ (“+” indicates greater than 50% inhibition at 10 μM)”. Besides, the “A6: inhibition of radioligand binding” value in test [1] ([125I]-S36057, human MCH1 membranes) is on record as “+ (“+” indicates greater than 50% inhibition at 10 μM)”. For the same compound, on Human μ-opioid (MOP) (human MOP membranes), the “A7: inhibition of radioligand binding” value is reported as “− (“−” indicates less than 50% inhibition at 10 μM)”. Also, the “A8: inhibition of radioligand binding” value on Human neurokinin (NK1) (human NK1 membranes) is “+ (“+” indicates greater than 50% inhibition at 10 μM)”. For the same compound, the “A9: inhibition of radioligand binding” value in test [2] (human NPY-Y1 membranes) is listed as “− (“−” indicates less than 50% inhibition at 10 μM)”. Also, the “A10: inhibition of radioligand binding” value on Human opioid (ORL1) (human ORL1 membranes) is given as “+ (“+” indicates greater than 50% inhibition at 10 μM)”. At Mouse urotensin (mUR2) (mouse mUR2 membranes), the “A11: inhibition of radioligand binding” value is on record as “− (“−” indicates less than 50% inhibition at 10 μM)”.
In the case of `CSC1O[C@H](COCc2ccc(Cl)cc2)[C@@H](O)[C@@H](OCc2ccc(Cl)cc2)[C@H]1NC(=O)CCCN` (stereo partly drawn) [compound 273], the “A1: inhibition of radioligand binding” value at Human δ-opioid (DOP) (FlashPlate) is reported as “− (“−” indicates less than 50% inhibition at 10 μM)”. For the same compound, the “A2: inhibition of radioligand binding” value at Human κ-Opioid (KOP) (filtration) is “− (“−” indicates less than 50% inhibition at 10 μM)”. In addition, on Human Melanocortin (MC3) (FlashPlate), the “A3: inhibition of radioligand binding” value was “− (“−” indicates less than 50% inhibition at 10 μM)”. For the same compound, the “A4: inhibition of radioligand binding” value on Human Melanocortin (MC4) (FlashPlate) is on record as “− (“−” indicates less than 50% inhibition at 10 μM)”. The “A5: inhibition of radioligand binding” value at Human melanocortin (MC5) (FlashPlate) was “− (“−” indicates less than 50% inhibition at 10 μM)”. Also, in [1] ([125I]-S36057, FlashPlate), the “A6: inhibition of radioligand binding” value is recorded as “− (“−” indicates less than 50% inhibition at 10 μM)”. The “A7: inhibition of radioligand binding” value at Human μ-opioid (MOP) (FlashPlate) was “− (“−” indicates less than 50% inhibition at 10 μM)”. Further, the “A8: inhibition of radioligand binding” value on Human neurokinin (NK1) (filtration) is “+ (“+” indicates greater than 50% inhibition at 10 μM)”. In addition, the “A9: inhibition of radioligand binding” value in test [2] (FlashPlate) is given as “− (“−” indicates less than 50% inhibition at 10 μM)”. Further, at Human opioid (ORL1) (FlashPlate), the “A10: inhibition of radioligand binding” value is “− (“−” indicates less than 50% inhibition at 10 μM)”. The “A11: inhibition of radioligand binding” value at Mouse urotensin (mUR2) (FlashPlate) is listed as “− (“−” indicates less than 50% inhibition at 10 μM)”.
